Experiment [1] relates to Differentiated L6-myotubes. Description: Glucose uptake in differentiated L6-myotubes (3H-2-deoxy-glucose). It is filed as cell-based. To be noted: agonist final concentration 1×10^−5; L6-myotubes; 3H-2-deoxy-glucose uptake; relative to isoproterenol; read-out: Biological example 1: glucose uptake, activity compared to that of isoproterenol.
Experiment [2] deals with Intracellular cAMP levels in differentiated cells (L6-myotubes). Description: Measurement of intracellular cAMP levels (alpha screen cAMP kit). It counts as cell-based. As to conditions: 0.25 h; agonist final concentration 1×10-^5, 15 min; differentiated cells; relative to isoproterenol; read-out: Biological example 2: intracellular cAMP levels, activity compared to that of isoproterenol. As for the experimental part: L6-myoblasts were grown in Dulbecco's Modified Eagle's Medium (DMEM) containing 4.5 g/l glucose supplemented with 10% fetal bovine serum, 2 mM L-Glutamine, 50 U/ml penicillin, 50 μg/ml streptomycin and 10 mM HEPES. Cells were plated at 1×10^5 cells per ml in 24-well plates. After reaching 90% confluence the cells were grown in medium containing 2% FBS for 7 days where upon cells differentiated into myotubes. Differentiated cells were serum-starved over night and stimulated with agonist, final concentration 1×10-^5, for 15 min in stimulation buffer (HBSS supplemented with 1% BSA, 5 mM HEPES and 1 mM IBMX, pH 7.4) The medium was then aspirated and to end the reaction 100 μL of 95% EtOH was added to each well of a 24-well plate and cells were kept in −20° C. over night. The EtOH was let to evaporate and 500 μL of lysis buffer (1% BSA, 5 mM HEPES and 0.3% Tween-20, pH 7.4) was added to each well before put in −80° C. for 30 min and then kept in −20° C. Intracellular cAMP levels were detected using an alpha screen cAMP kit (6760635D from Perkin Elmer). The activity for each compound is compared to that of isoproterenol.
Background: Changes in cAMP serve as a functional read-out for many G protein-coupled receptors.

SMILES strings stand for the structures. Structures can show the parent of a compound that is named as a salt.

For `CCC[C@H]1CCC[C@@H]([C@H](O)c2cccc(F)c2)N1` [Example 34, (R)-(3-Fluorophenyl)((2S,6S)-6-propylpiperidin-2-yl)methanol hydrochloride], the Emax is 50 to 75% in experiment [1] and less than 25% in experiment [2].
Taken in the same sequence, the figures for `CCC[C@H]1CCC[C@@H]([C@@H](O)c2cccc(F)c2)N1` [Example 35, (S)-(3-Fluorophenyl)((2S,6S)-6-propylpiperidin-2-yl)methanol hydrochloride] were 25 to 50% and less than 25%.
Taken in the same sequence, the figures for `CCC[C@H]1CCC[C@@H]([C@H](O)c2cccc(Cl)c2)N1` [Example 36, (R)-(3-Chlorophenyl)((2S,6S)-6-propylpiperidin-2-yl)methanol hydrochloride] were 25 to 50% and less than 25%.
For `CCC[C@H]1CCC[C@@H]([C@H](O)c2cccc(O)c2)N1` [Example 37, (R)-(3-Hydroxyphenyl)((2S, 6S)-6-propylpiperidin-2-yl)methanol] the same measures were 50 to 75% and less than 25%.
For `CCC[C@@H]1CC[C@H]([C@@H](O)c2cccc(F)c2)N1` [Example 39, (S)-(3-Fluorophenyl)((2R,5R)-5-propylpyrrolidin-2-yl)methanol Hydrochloride], the Emax in experiment [1] is 50 to 75%; in experiment [2] it was less than 25%.
On to `CCC[C@@H]1CC[C@H]([C@@H](O)c2cccc(O)c2)N1` [Example 40, 3-((S)-Hydroxy((2R,5R)-5-propylpyrrolidin-2-yl)methyl)phenol], for which the Emax in experiment [1] is 25 to 50%; in experiment [2], less than 25%.
`CCC[C@H]1CC[C@@H]([C@H](O)c2cccc(F)c2)N1` [Example 41, (R)-(3-fluorophenyl)((2S,5S)-5-propylpyrrolidin-2-yl)methanol Hydrochloride]: the Emax was 50 to 75% in experiment [1] and less than 25% in experiment [2].
Taken in the same sequence, the figures for `CCC[C@H]1CC[C@@H]([C@@H](O)c2cccc(F)c2)N1` [Example 42, (S)-(3-Fluorophenyl)((2S,5S)-5-propylpyrrolidin-2-yl)methanol Hydrochloride] were 50 to 75% and less than 25%.
Take `CCC[C@@H]1CC[C@@H]([C@H](O)c2cccc(F)c2)N1` [Example 43, (R)-(3-Fluorophenyl)((2S,5R)-5-propylpyrrolidin-2-yl)methanol Hydrochloride]: the Emax in experiment [1] was 25 to 50%; in experiment [2], less than 25%.
With `CCC[C@@H]1CC[C@@H]([C@@H](O)c2cccc(F)c2)N1` [Example 44, (S)-(3-Fluorophenyl)((2S,5R)-5-propylpyrrolidin-2-yl)methanol Hydrochloride], the Emax in experiment [1] was 50 to 75%; in experiment [2], less than 25%.
`CCC[C@H]1CC[C@H]([C@H](O)c2cccc(F)c2)N1` [Example 45, (R)-(3-Fluorophenyl)((2R,5S)-5-propylpyrrolidin-2-yl)methanol]: the Emax was 50 to 75% in experiment [1] and less than 25% in experiment [2].
As for `CCC[C@@H]1CC[C@H]([C@H](O)c2cccc(Cl)c2)N1` [Example 47, (R)-(3-Chlorophenyl)((2R,5R)-5-propylpyrrolidin-2-yl)methanol Maleate], the Emax in experiment [1] is 50 to 75%; in experiment [2], less than 25%.
